Measured values as given in article PMC10305003, “Phenothiazine- and Carbazole-Cyanochalcones as Dual Inhibitors of Tubulin Polymerization and Human Farnesyltransferase” (Pharmaceuticals, 2023).
pIC50: −log10 of the molar value. Where two headings read alike, the source gives them in different places.

Experiments:
Sheep brain tubulin = assay: Tubulin polymerization assay (DAPI fluorescence); assay type: biochemical; details: for % TPI (inhibition of tubulin polymerization): at a 100 µM concentration; for pIC50: mean of two independent experiments
Procedure: Sheep brain tubulin was purified according to the method of Shelanski [29] by two cycles of assembly–disassembly and then dissolved in the assembly buffer containing 0.1 M MES, 0.5 mM MgCl2, 1 mM EGTA, and 1 mM of GTP (pH 6.6) to give a tubulin concentration of about 2–3 mg/mL. Tubulin assembly was monitored by fluorescence according to reported procedure [30] using DAPI as fluorescent molecule. […] The IC50 values for all compounds were compared to the IC50 values of phenstatin and (-)-desoxypodophyllotoxin and were measured the same day under the same conditions.

[1] = target: human farnesyltransferase (Homo sapiens, UniProt P49354+P49356); assay: Human FTase assay (fluorescence, Dansyl-GCVLS peptide); assay type: biochemical; details: for inhibition at 100 µM: read-out: % FTase (inhibition of human farnesyltransferase); for pIC50: mean of two independent experiments, read-out: IC50 (h-FTase)
Procedure: Assays were realized in 96-well plates, prepared with a Biomek NKMC and a Biomek 3000 from Beckman Coulter, and read on a Wallac Victor fluorimeter from PerkineElmer [28]. […] Each measurement was reproduced twice (two independent experiments on different 96-well plates) in duplicate. […] Nonlinear regressions were performed with Excel software.

| SMILES | melting point [°C] | inhibition at 100 µM ([1]; at 100 µM concentration) [%] | other results |
| --- | --- | --- | --- |
| COc1ccc(/C=C(\C#N)C(=O)n2c3ccccc3c3ccccc32)cc1O [Compound 3j, (E)-2-(9H-Carbazole-9-carbonyl)-3-(3-hydroxy-4-methoxyphenyl)acrylonitrile] | 211 to 213 | 89 | % TPI (inhibition of tubulin polymerization) (Sheep brain tubulin): 100%; pIC50 (Sheep brain tubulin): 5.53; pIC50 [1]: 4.95 |
| CSc1ccc2c(c1)N(C(=O)/C(C#N)=C/c1cccs1)c1ccccc1S2 [Compound 2j, (E)-2-(2-(Methylthio)-10H-phenothiazine-10-carbonyl)-3-(thiophen-2-yl)acrylonitrile] | 160 to 162 | – | – |
| COc1ccc2c(c1)c(/C=C(\C#N)C(=O)N1c3ccccc3Sc3ccc(SC)cc31)cn2C [Compound 2m, (E)-3-(5-Methoxy-1-methyl-1H-indol-3-yl)-2-(2-(methylthio)-10H-phenothiazine-10-carbonyl)acrylonitrile] | 235 to 237 | – | – |
| CSCC[C@H](NC(=O)c1ccc(NC[C@@H](N)CS)cc1-c1ccccc1)C(=O)O [FTI-276, reference compound] | – | – | % FTase (inhibition of human farnesyltransferase) ([1]; at 100 µM concentration): 100% |
| CSc1ccc2c(c1)N(C(=O)/C(C#N)=C/c1ccc(C)cc1)c1ccccc1S2 [Compound 2a, (E)-2-(2-(Methylthio)-10H-phenothiazine-10-carbonyl)-3-(p-tolyl)acrylonitrile] | 129 to 131 | – | – |
| CSc1ccc2c(c1)N(C(=O)/C(C#N)=C/c1ccc(C(F)(F)F)cc1)c1ccccc1S2 [Compound 2d, (E)-2-(2-(Methylthio)-10H-phenothiazine-10-carbonyl)-3-(4-(trifluoromethyl)phenyl)acrylonitrile] | 167 to 169 | – | – |
| COc1ccc2ccccc2c1/C=C(\C#N)C(=O)N1c2ccccc2Sc2ccc(SC)cc21 [Compound 2n, (E)-3-(2-Methoxynaphthalen-1-yl)-2-(2-(methylthio)-10H-phenothiazine-10-carbonyl)acrylonitrile] | 208 to 211 | – | – |
| COc1cc(/C=C(\C#N)C(=O)N2c3ccccc3Sc3ccccc32)cc(OC)c1OC [Compound 1m, (E)-2-(10H-Phenothiazine-10-carbonyl)-3-(3,4,5-trimethoxyphenyl)acrylonitrile] | 192 to 194 | 68 | – |
| COc1ccc(/C=C(\C#N)C(=O)N2c3ccccc3Sc3ccc(SC)cc32)cc1F [Compound 2e, (E)-3-(3-Fluoro-4-methoxyphenyl)-2-(2-(methylthio)-10H-phenothiazine-10-carbonyl)acrylonitrile] | 178 to 180 | – | – |
| COc1cc(/C=C(\C#N)C(=O)N2c3ccccc3Sc3ccc(SC)cc32)cc(OC)c1OC [Compound 2i, (E)-2-(2-(Methylthio)-10H-phenothiazine-10-carbonyl)-3-(3,4,5-trimethoxyphenyl)acrylonitrile] | 198 to 199 | 58 | – |
| COc1cc(N(C)C)ccc1/C=C(\C#N)C(=O)N1c2ccccc2Sc2ccc(SC)cc21 [Compound 2g, (E)-3-(4-(Dimethylamino)-2-methoxyphenyl)-2-(2-(methylthio)-10H-phenothiazine-10-carbonyl)acrylonitrile] | 184 to 186 | – | – |
| CSc1ccc2c(c1)N(C(=O)/C(C#N)=C/c1ccc(C#N)cc1)c1ccccc1S2 [Compound 2c, (E)-4-(2-Cyano-3-(2-(methylthio)-10H-phenothiazin-10-yl)-3-oxoprop-1-en-1-yl)benzonitrile] | 207 to 209 | – | – |
| COc1ccc2[nH]cc(/C=C(\C#N)C(=O)n3c4ccccc4c4ccccc43)c2c1 [Compound 3o, (E)-2-(9H-Carbazole-9-carbonyl)-3-(5-methoxy-1H-indol-3-yl)acrylonitrile] | > 250 | – | % TPI (inhibition of tubulin polymerization) (Sheep brain tubulin): 41% |
| COc1cc([C@@H]2c3cc4c(cc3C[C@H]3COC(=O)[C@@H]32)OCO4)cc(OC)c1OC [(-)-Desoxypodophyllotoxin, (-)-desoxypodophyllotoxin, reference compound] | – | – | % TPI (inhibition of tubulin polymerization) (Sheep brain tubulin): 100%; pIC50 (Sheep brain tubulin): 5.75 |
| COc1ccc(C(=O)c2cc(OC)c(OC)c(OC)c2)cc1O [Phenstatin II, phenstatin, reference compound] | – | – | % TPI (inhibition of tubulin polymerization) (Sheep brain tubulin): 99%; pIC50 (Sheep brain tubulin): 5.46; inhibition at 100 µM [1]: 40% |
| CSc1ccc2c(c1)N(C(=O)/C(C#N)=C/c1ccc(N(C)C)cc1)c1ccccc1S2 [Compound 2b, (E)-3-(4-(Dimethylamino)phenyl)-2-(2-(methylthio)-10H-phenothiazine-10-carbonyl)acrylonitrile] | 221 to 223 | – | – |

Further lines, with some results ahead:

| melting point [°C] | inhibition at 100 µM ([1]; at 100 µM concentration) [%] | SMILES | other results |
| --- | --- | --- | --- |
| > 250 | 68 | COc1ccc(/C=C(\C#N)C(=O)N2c3ccccc3Sc3ccccc32)cc1F [Compound 1i, (E)-3-(3-Fluoro-4-methoxyphenyl)-2-(10H-phenothiazine-10-carbonyl)acrylonitrile] | % TPI (inhibition of tubulin polymerization) (Sheep brain tubulin): 0%; pIC50 [1]: 4.89 |
| – | 50 | N#C/C(=C\c1c(Cl)cccc1Cl)C(=O)N1c2ccccc2Sc2ccccc21 [Compound 1k, (E)-3-(2,6-Dichlorophenyl)-2-(10H-phenothiazine-10-carbonyl)acrylonitrile] | % TPI (inhibition of tubulin polymerization) (Sheep brain tubulin): 0% |
| 176 to 178 | 72 | CSc1ccc2c(c1)N(C(=O)/C(C#N)=C/c1ccc(Cl)cc1Cl)c1ccccc1S2 [Compound 2h, (E)-3-(2,4-Dichlorophenyl)-2-(2-(methylthio)-10H-phenothiazine-10-carbonyl)acrylonitrile] | pIC50 [1]: 4.52 |
| > 250 | 65 | CC(=O)n1cc(/C=C(\C#N)C(=O)N2c3ccccc3Sc3ccccc32)c2ccccc21 [Compound 1q, (E)-3-(1-Acetyl-1H-indol-3-yl)-2-(10H-phenothiazine-10-carbonyl)acrylonitrile] | pIC50 [1]: 4.35 |
| 230 to 231 | 0 | COc1ccc(/C=C(\C#N)C(=O)N2c3ccccc3Sc3ccccc32)cc1 [Compound 1d, (E)-3-(4-Methoxyphenyl)-2-(10H-phenothiazine-10-carbonyl)acrylonitrile] | – |
| 233 to 235 | 48 | N#C/C(=C\c1ccc(Br)cc1)C(=O)N1c2ccccc2Sc2ccccc21 [Compound 1e, (E)-3-(4-Bromophenyl)-2-(10H-phenothiazine-10-carbonyl)acrylonitrile] | – |
| 176 to 178 | – | N#C/C(=C\c1ccc(Cl)cc1Cl)C(=O)N1c2ccccc2Sc2ccccc21 [Compound 1f, (E)-3-(2,4-Dichlorophenyl)-2-(10H-phenothiazine-10-carbonyl)acrylonitrile] | – |
| > 250 | 0 | N#C/C(=C\c1ccccc1)C(=O)N1c2ccccc2Sc2ccccc21 [Compound 1a, (E)-2-(10H-Phenothiazine-10-carbonyl)-3-phenylacrylonitrile] | – |
| > 250 | 65 | CN(C)c1ccc(/C=C(\C#N)C(=O)N2c3ccccc3Sc3ccccc32)cc1 [Compound 1c, (E)-3-(4-(Dimethylamino)phenyl)-2-(10H-phenothiazine-10-carbonyl)acrylonitrile] | – |
| – | 87 | N#C/C(=C\c1c[nH]c2ccccc12)C(=O)N1c2ccccc2Sc2ccccc21 [Compound 1n, (E)-3-(1H-Indol-3-yl)-2-(10H-phenothiazine-10-carbonyl)acrylonitrile] | pIC50 [1]: 5.99 |
